Experimental data as given in patent US6703213B2, “Substrate analogs for MurG, methods of making same and assays using same” (The Trustees of Princeton University, priority 1998, dated 2004).

Biological target: T1, wild type E. coli MurG (Escherichia coli, UniProt P17443)
T1 construct: made in house; host or cells: E. coli BL21(DE3)pLysS, pET3a vector
Test: Initial rate assays with purified, soluble enzyme
Assay type: biochemical
Settings: rapid equilibrium sequential mechanism assumed; 0.08 μM purified MurG; UDP-GlcNAc as varied substrate
Procedure: The following solutions are prepared prior to the assays: 1) 177.3 μM [^14C]-UDP-GlcNAc in H2O (0.05 mCi/mL); 2) 1.5 mM UDP-GlcNAc in H2O; 3) biotinylated Lipid I analog (1b) at 0.5 μg/μL; 4) 10×reaction buffer containing 50 mM HEPES (pH 7.9) and 5 mM MgCl2. The enzyme stock is prepared by diluting the purified enzyme with TBSE to a final concentration of 0.04 μg/μL in a 0.5 mL tube and storing at 4° C. for two days prior to running the assays.
Thirty reactions are prepared by individually mixing 2 μL of 10×reaction buffer with an appropriate amount of biotinylated Lipid I analog (1b), radioactive UDP-GlcNAc, nonradioactive UDP-GlcNAc, and H2O to a final volume of 18 μl. The final concentration for the Lipid I analog (1b) are 7 μM, 10 μM, 15 μM, 30 μM, 100 μM, and for UDP-GlcNAc 11 μM, 15 μM, 20 μM, 40 μM, 100 μM, 200 μM. Reactions are initiated by adding 2 μL of the enzyme stock and are run for 4 minutes at 24° C. Reactions are stopped by adding 10 μl of 1% (w/v) SDS.
Deionized H2O is added to each tube to a final volume of approximately 250 μL and the suspension is transferred to a […] 96-well filter plate fitted to a vacuum-line fitted MultiScreen Assay System (Millipore). The resin is washed 15 times with 0.2 mL deionized H2O. […] Samples are counted immediately on a Beckman LS5000 scintillation counter.

T1 sequence (P17443 whole entry): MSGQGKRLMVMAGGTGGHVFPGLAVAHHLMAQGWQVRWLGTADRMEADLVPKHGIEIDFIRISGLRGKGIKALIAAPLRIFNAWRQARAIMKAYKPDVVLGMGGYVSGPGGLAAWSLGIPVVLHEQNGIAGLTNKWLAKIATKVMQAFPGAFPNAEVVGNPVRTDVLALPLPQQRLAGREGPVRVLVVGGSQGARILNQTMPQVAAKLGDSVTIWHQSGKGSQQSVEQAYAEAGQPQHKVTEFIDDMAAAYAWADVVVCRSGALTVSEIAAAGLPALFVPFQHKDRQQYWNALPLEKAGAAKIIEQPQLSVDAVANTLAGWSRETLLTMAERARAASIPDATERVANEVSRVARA

Compound CC(=O)N[C@H]1[C@@H](OP(=O)(O)OP(=O)(O)OC[C@H]2O[C@@H](n3ccc(=O)[nH]c3=O)[C@H](O)[C@@H]2O)O[C@H](CO)[C@@H](O)[C@@H]1O [UDP-GLCNAC, UDP-N-acetylglucosamine] has a KUDP-GLCNAC of 110 µM.
